# Test results: publication PMC5882164, “A novel calcimimetic agent, evocalcet (MT-4580/KHK7580), suppresses the parathyroid cell function with little effect on the gastrointestinal tract or CYP isozymes in vivo and in vitro” (PLoS ONE, 2018)
# Structures can show the parent of a compound that is named as a salt. Where two headings read alike, the source gives them in different places.
# Columns and labels:
# [1] = Pharmacokinetics of evocalcet after oral administration to male rats; conditions: rat, in vivo; for AUC(0-inf): AUC0-∞
# Experimental: The plasma concentrations of evocalcet were determined after single or repeated oral administration in both normal and 5/6 Nx rats. The pharmacokinetic (PK) parameters of the rat plasma concentrations were calculated individually using Phoenix WinNonlin 6.2, a PK analysis software program (Pharsight Corporation, Sunnyvale, CA).
# CYP2B6 = molecular target: T1, CYP2B6 (Homo sapiens, UniProt P20813); experiment: CYP inhibition assay in human liver microsomes; format: in vitro ADME; conditions: no pre-incubation, read-out: IC50 direct inhibition of CYP2B6
# T1 construct: from tissue; host or cells: human liver microsomes
# T1 sequence (P20813 1-491): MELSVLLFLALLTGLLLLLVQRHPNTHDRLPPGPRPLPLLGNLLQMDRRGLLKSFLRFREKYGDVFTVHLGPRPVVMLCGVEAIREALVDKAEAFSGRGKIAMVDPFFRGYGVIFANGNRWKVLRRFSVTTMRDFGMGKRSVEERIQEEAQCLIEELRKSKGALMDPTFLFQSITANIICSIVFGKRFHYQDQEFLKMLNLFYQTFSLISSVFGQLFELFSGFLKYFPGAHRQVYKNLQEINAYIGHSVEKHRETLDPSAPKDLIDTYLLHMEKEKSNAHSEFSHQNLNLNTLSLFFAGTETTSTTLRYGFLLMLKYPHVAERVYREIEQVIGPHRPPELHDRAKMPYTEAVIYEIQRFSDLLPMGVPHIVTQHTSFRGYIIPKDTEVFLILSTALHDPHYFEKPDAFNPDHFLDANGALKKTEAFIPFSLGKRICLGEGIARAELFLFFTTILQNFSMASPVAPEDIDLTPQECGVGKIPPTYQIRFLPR
# Experimental: (§1) The direct inhibition of evocalcet (0.15~50 μM, 6-point concentrations) against the specific activities of 9 CYP isozymes (CYP1A2, CYP2A6, CYP2B6, CYP2C8, CYP2C9, CYP2C19, CYP2D6, CYP2E1, and CYP3A4/5) was examined in human liver microsomes without the pre-incubation of evocalcet, in the presence of the NADPH-generating system. Each CYP substrate was incubated with human liver microsomes in the absence or presence of evocalcet, and the inhibition of evocalcet for each CYP isozyme was measured.
# CYP2C8 = molecular target: T2, CYP2C8 (Homo sapiens, UniProt P10632); experiment: CYP inhibition assay in human liver microsomes; format: in vitro ADME; conditions: no pre-incubation, read-out: IC50 direct inhibition of CYP2C8
# T2 construct: from tissue; host or cells: human liver microsomes
# T2 sequence (P10632 1-490): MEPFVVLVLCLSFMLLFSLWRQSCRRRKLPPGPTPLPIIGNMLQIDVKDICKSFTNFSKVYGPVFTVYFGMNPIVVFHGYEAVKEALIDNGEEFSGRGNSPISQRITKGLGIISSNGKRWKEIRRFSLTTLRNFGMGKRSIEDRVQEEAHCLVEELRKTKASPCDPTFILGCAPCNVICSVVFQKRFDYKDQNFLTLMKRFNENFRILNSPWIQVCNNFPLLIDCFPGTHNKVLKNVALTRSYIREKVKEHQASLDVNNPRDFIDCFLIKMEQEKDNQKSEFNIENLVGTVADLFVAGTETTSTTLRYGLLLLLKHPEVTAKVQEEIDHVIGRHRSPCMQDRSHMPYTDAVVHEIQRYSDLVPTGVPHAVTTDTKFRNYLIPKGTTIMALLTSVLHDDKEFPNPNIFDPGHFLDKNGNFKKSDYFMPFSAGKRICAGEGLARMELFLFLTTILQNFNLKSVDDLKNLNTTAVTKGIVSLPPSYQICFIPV
# Experimental: as §1
# CYP2E1 = molecular target: T3, CYP2E1 (Homo sapiens, UniProt P05181); experiment: CYP inhibition assay in human liver microsomes; format: in vitro ADME; conditions: no pre-incubation, read-out: IC50 direct inhibition of CYP2E1
# T3 construct: from tissue; host or cells: human liver microsomes
# Experimental: as §1
# CYP3A4/5 = experiment: CYP inhibition assay in human liver microsomes; format: in vitro ADME; conditions: no pre-incubation, read-out: IC50 direct inhibition of CYP3A4/5
# Experimental: as §1
# emesis = conditions: common marmoset, in vivo, 4 h
# Experimental: The study of effect of evocalcet on emesis in common marmoset was performed by referencing a previously reported method. The marmosets (n = 24) used for this study were housed in cages (460 × 600 × 655 mm) with environmental enrichments (wooden perches, swing, and balls) and acclimated for at least 4 weeks. The marmosets were fasted from evening on the day before administration. To confirm the reduction in the serum PTH levels, blood samples (about 300~400 μL, 1.2∼1.6% of total blood volume) were collected from the femoral or saphenous vein without an anesthesia before and at 1 and 4 h after the oral administration of evocalcet (1.5 or 5 μg/kg, n = 3 in each dose) or cinacalcet (300 or 500 μg/kg, n = 3 in each dose) suspended in 0.5% methyl cellulose solution using a metallic gastric zonde. The serum PTH level was measured using a Porcine Intact PTH ELISA kit (Immutopics, Inc., San Clemente, CA, USA). To evaluate the emetic effects in marmosets, evocalcet (50 or 150 μg/kg) or cinacalcet (1500 or 5000 μg/kg) was orally administered (n = 6/drug, dose down titration, n = 12 in total). The observation of emesis was conducted until 4 h after the administration.
# T3 sequence (P05181 whole entry): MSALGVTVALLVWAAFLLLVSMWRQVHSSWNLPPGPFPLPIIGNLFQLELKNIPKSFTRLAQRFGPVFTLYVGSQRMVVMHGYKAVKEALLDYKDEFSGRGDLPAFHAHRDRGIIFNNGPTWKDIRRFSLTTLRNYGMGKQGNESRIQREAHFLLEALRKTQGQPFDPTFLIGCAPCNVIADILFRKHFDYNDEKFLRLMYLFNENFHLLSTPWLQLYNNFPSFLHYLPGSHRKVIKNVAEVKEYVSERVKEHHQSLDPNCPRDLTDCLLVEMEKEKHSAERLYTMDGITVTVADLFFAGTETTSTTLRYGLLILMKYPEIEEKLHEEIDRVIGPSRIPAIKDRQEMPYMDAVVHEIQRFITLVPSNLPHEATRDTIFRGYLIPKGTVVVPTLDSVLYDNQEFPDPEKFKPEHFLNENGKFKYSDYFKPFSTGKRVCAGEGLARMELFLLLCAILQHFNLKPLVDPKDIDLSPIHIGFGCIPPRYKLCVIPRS
smiles,measurement,setting,value
C[C@@H](N[C@H]1CCN(c2ccc(CC(=O)O)cc2)C1)c1cccc2ccccc12 [evocalcet],bioavailability,"[1]; Sprague-Dawley, Bioavailability",> 80%
same,AUC(0-inf),"[1]; Sprague-Dawley, po, 0.1 mg/kg",819 ng·h/mL
same,Cmax,"[1]; Sprague-Dawley, po, 0.1 mg/kg",222 ng/mL
same,bioavailability,"[1]; Sprague-Dawley, po, 0.1 mg/kg, F (bioavailability)",81.6%
same,half-life,"[1]; Sprague-Dawley, po, 0.1 mg/kg, t1/2",400 min
same,Tmax,"[1]; Sprague-Dawley, po, 0.1 mg/kg, tmax",15 min
same,AUC(0-inf),"[1]; Sprague-Dawley, po, 0.3 mg/kg",2580 ng·h/mL
same,Cmax,"[1]; Sprague-Dawley, po, 0.3 mg/kg",600 ng/mL
same,bioavailability,"[1]; Sprague-Dawley, po, 0.3 mg/kg, F (bioavailability)",85.6%
same,half-life,"[1]; Sprague-Dawley, po, 0.3 mg/kg, t1/2",346 min
same,Tmax,"[1]; Sprague-Dawley, po, 0.3 mg/kg, tmax",22.8 min
same,t1/2,"[1]; Sprague-Dawley, po, 1 mg/kg",6.13 h
same,AUC(0-inf),"[1]; Sprague-Dawley, po, 1 mg/kg",8440 ng·h/mL
same,Cmax,"[1]; Sprague-Dawley, po, 1 mg/kg",2190 ng/mL
same,bioavailability,"[1]; Sprague-Dawley, po, 1 mg/kg, F (bioavailability)",84.2%
same,Tmax,"[1]; Sprague-Dawley, po, 1 mg/kg, tmax",48.6 min
same,half-life,"[1]; normal rats, single oral dose 1 mg/kg, mean, read-out: t1/2 (converted)",368 min
same,AUC(0-inf),"[1]; po, 0.1 mg/kg",981 ng·h/mL
same,Cmax,"[1]; po, 0.1 mg/kg",221 ng/mL
same,half-life,"[1]; po, 0.1 mg/kg, t1/2",343 min
same,Tmax,"[1]; po, 0.1 mg/kg, tmax",15 min
same,Tmax,"[1]; po, 0.3 mg/kg",30 min
same,AUC(0-inf),"[1]; po, 0.3 mg/kg",2260 ng·h/mL
same,Cmax,"[1]; po, 0.3 mg/kg",570 ng/mL
same,half-life,"[1]; po, 0.3 mg/kg, t1/2",341 min
same,Tmax,"[1]; po, 0.3 mg/kg, tmax",15 min
same,Tmax,"[1]; po, 1 mg/kg",60 min
same,AUC(0-inf),"[1]; po, 1 mg/kg",7890 ng·h/mL
same,Cmax,"[1]; po, 1 mg/kg",1810 ng/mL
same,half-life,"[1]; po, 1 mg/kg, t1/2",419 min
same,IC50,CYP2B6,> 50 µM
same,IC50,CYP2C8,> 50 µM
same,IC50,CYP2E1,> 50 µM
same,IC50,CYP3A4/5,> 50 µM
"C[C@@H](NCCCc1cccc(C(F)(F)F)c1)c1cccc2ccccc12 [cinacalcet, Cinacalcet hydrochloride, reference compound]",Safety margin,emesis,3 < X < 10
